Assay results: patent US12144800B2 (priority 2015, dated 2024)
Like-named read-outs stand apart in the source and are kept apart here.

Key:
C. perfringens spores [1] = assay: microbe, parasite or virus in culture; conditions: Clostridium perfringens, read-out: IC50, inhibition of C. perfringens spore germination
C. perfringens spores [2] = format: cell-based, Clostridium perfringens; conditions: for induction of spore germination by bile salt in the presence of amino acids: BA pathway; for triggering of spore germination by detergent: even in the presence of excess L-alanine
C. perfringens spores [3] = format: cell-based, Clostridium perfringens; conditions: for effect of added salt on AA pathway response / effect of added salt on BA germination pathway: potassium phosphate or sodium phosphate buffer; for effect of added salt on AA pathway response / effect of added salt on BA pathway / effect of added salt on BA germination pathway: 150 mM salt; for effect of added salt on BA pathway: spores resuspended in sodium phosphate buffer
C. perfringens spores [4] = conditions: with L-alanine, in place of L-phenylalanine
C. perfringens spores [5] = conditions: spore germination inhibition
C. perfringens strains = format: cell-based, Clostridium perfringens
[6] = in the presence of theobromine, strains 1936, 1473, 1882

For `CSc1nc2ccccc2s1` [2-MTB, 2-methylthiobenzothiazole], the IC50 (C. perfringens spores [1]) was 74 µM.

With `C[C@H](CCC(=O)O)[C@H]1CC[C@H]2[C@@H]3[C@H](O)C[C@@H]4C[C@H](O)CC[C@]4(C)[C@H]3C[C@H](O)[C@]12C` [Cholate] the “induction or inhibition of spore germination in the presence of L-alanine” value (“induction or inhibition” below) (C. perfringens spores [2]) was “did not induce or inhibit”.

In the case of `C[C@H](CCC(=O)NCC(=O)O)[C@H]1CC[C@H]2[C@@H]3[C@H](O)C[C@@H]4C[C@H](O)CC[C@]4(C)[C@H]3C[C@H](O)[C@]12C` [Glycocholate], the “induction of spore germination by bile salt in the presence of amino acids” value (shortened to “induction of spore germination”) (C. perfringens spores [2]) is reported as “induced C. perfringens spore germination”.

In the case of `[Br-].[K+]` [KBr], the “effect of added salt on AA pathway response” value (C. perfringens spores [3]) is reported as “did not affect” and the “effect of added salt on BA pathway” value (C. perfringens spores [3]) is reported as “induced the BA pathway”.

For `[Cl-].[K+]` [KCl], the “effect of added salt on AA pathway response” value (C. perfringens spores [3]) was “did not affect” and the “effect of added salt on BA pathway” value (C. perfringens spores [3]) was “induced the BA pathway”.

`N[C@@H](Cc1ccc(O)cc1)C(=O)O` [L-tyrosine] was tested, and the “germination rate slower than with L-phenylalanine” value (C. perfringens spores [4]) was “more than 50%”.

In the case of `COc1nc2ccccc2s1` [MOB, 2-methoxy benzothiazole], the IC50 (C. perfringens spores [1]) is reported as 98 µM and the “inhibitory concentration compared with other analogs” value (C. perfringens spores [5]) is reported as “approximately ten times lower than other analogs”.

For `[Br-].[Na+]` [NaBr], the “effect of added salt on AA pathway response” value (C. perfringens spores [3]) was “did not affect” and the “effect of added salt on BA germination pathway” value (C. perfringens spores [3]) was “did not affect”.

For `[Cl-].[Na+]` [NaCl], the “effect of added salt on AA pathway response” value (C. perfringens spores [3]) was “did not affect” and the “effect of added salt on BA germination pathway” value (C. perfringens spores [3]) was “did not affect”.

For `CCCCCCCCCCCCOS(=O)(=O)[O-].[Na+]` [SDS], the “triggering of spore germination by detergent” value (C. perfringens spores [2]) was “Neither detergent was able to trigger”.

In the case of `C[C@H](CCC(=O)O)[C@H]1CC[C@H]2[C@@H]3[C@H](O)C[C@@H]4C[C@H](O)CC[C@]4(C)[C@H]3CC[C@]12C` [chenodeoxycholate], the “induction or inhibition” value (C. perfringens spores [2]; FIG. 3B) is reported as “did not induce or inhibit”.

With `O=C([O-])O.[K+]` [potassium bicarbonate] the “effect of added bicarbonate on germination rate” value (C. perfringens spores [3]) was “increased germination rate”.

With `OC[C@H]1O[C@H](OC[C@H]2O[C@H](O[C@]3(CO)O[C@H](CO)[C@@H](O)[C@@H]3O)[C@H](O)[C@@H](O)[C@@H]2O)[C@H](O)[C@@H](O)[C@H]1O` [raffinose] the “sporulation with the carbon source” value (C. perfringens strains; 0.5% carbon source in solid medium) was “preferred carbon source”.

For `O=C([O-])O.[Na+]` [sodium bicarbonate], the “effect of added bicarbonate on germination rate” value (C. perfringens spores [3]) was “increased germination rate”.

For `C[C@H](CCC(=O)NCCS(=O)(=O)O)[C@H]1CC[C@H]2[C@@H]3[C@H](O)C[C@@H]4C[C@H](O)CC[C@]4(C)[C@H]3CC[C@]12C` [taurochenodeoxycholate], the “induction of spore germination” value (C. perfringens spores [2]) was “induced C. perfringens spore germination”.

In the case of `C[C@H](CCC(=O)NCCS(=O)(=O)O)[C@H]1CC[C@H]2[C@@H]3CC[C@@H]4C[C@H](O)CC[C@]4(C)[C@H]3C[C@H](O)[C@]12C` [taurodeoxycholate], the “induction of spore germination” value (C. perfringens spores [2]) is reported as “induced C. perfringens spore germination”.

In the case of `Cn1cnc2c1c(=O)[nH]c(=O)n2C` [theobromine], the “time at which spores could be detected” value (C. perfringens strains; [6]) is reported as “two days after plating”, the “time of maximum sporulation levels” value (C. perfringens strains; [6]) is reported as 5-7 days post-plating and the “effect of theobromine on sporulation level” value (“effect … on sporulation level” below) (C. perfringens strains; strain 1473) is reported as “decreased”. The “Theobromine, effect on sporulation” value (C. perfringens strains; strain 1473, inoculum BHI, peptone #3) was “Increases sporulation”, the “Theobromine, effect on sporulation” value (C. perfringens strains; strain 1473, inoculum Thioglycollate, peptone #1) was “Reduces sporulation” and the “Theobromine, effect on sporulation” value (C. perfringens strains; strain 1521, inoculum Thioglycollate, peptone #1) was “Required for sporulation”. For the same compound, the “effect … on sporulation level” value (C. perfringens strains; strain 1882) was “increased”, the “Theobromine, effect on sporulation” value (C. perfringens strains; strain 1882, inoculum BHI, peptone #2) was “Increases sporulation” and the “effect … on sporulation level” value (C. perfringens strains; strain 1936) was “remained unchanged”. The “Theobromine, effect on sporulation” value (C. perfringens strains; strain 1936, inoculum BHI, peptone #1) was “No effect on sporulation”, the “Theobromine, effect on sporulation” value (C. perfringens strains; strain 4064, inoculum BHI, peptone #1) was “Required for sporulation” and the “Theobromine, effect on sporulation” value (C. perfringens strains; strain 4104, inoculum BHI, peptone #3) was “Required for sporulation”. For the same compound, the “Theobromine, effect on sporulation” value (C. perfringens strains; strain 4104, inoculum Thioglycollate, peptone #3) was “Required for sporulation”, the “Theobromine, effect on sporulation” value (C. perfringens strains; strain 4121, inoculum Thioglycollate, peptone #2) was “Required for sporulation” and the “effect on sporulation times” value (C. perfringens strains; strains 1936, 1473, 1882) was “reduced sporulation times”. The “effect of theobromine on sporulation” value (C. perfringens strains; strains 4104, 4064, 1521, 4121, solid media) was “only sporulated robustly when theobromine was added”.

Triton-X-100 was tested, and the “triggering of spore germination by detergent” value (C. perfringens spores [2]) was “Neither detergent was able to trigger”.

In the case of deoxycholate, the “induction or inhibition” value (C. perfringens spores [2]; FIG. 3B) is reported as “did not induce or inhibit”.
